System: E. faecalis (CL 4877)
Test: Zone of inhibition screen, 96 well agar array format
Assay type: cell-based
Parameters: scale not given here
Protocol: The antibacterial activity of each of the compounds against the bacterial strains E. faceium (ATCC 49624), S. epidermidis (ATCC 12228), S. aureus (ATCC 29213), E. faecalis (CL 4877) and E. faecalis (ATCC 292121) was tested. Each of the compounds was screened in a 96 will agar array format.

[1] = zone of inhibition relative to 1 mg/ml stock solution of p-chlorobiphenylvancomycin
[2] = zone of inhibition relative to 1 mg/ml p-chlorobiphenylvancomycin

| Compound | zone score, E. faecalis CL 4877 [1] | zone score, E. faecalis CL 4877 [2] |
| --- | --- | --- |
| CC1OC(OC2C(Oc3c4cc5cc3Oc3ccc(cc3Cl)C(O)C(NC(=O)C3OC(O)C(O)C(O)C3O)C(=O)NC(CC(N)=O)C(=O)NC5C(=O)NC3C(=O)NC(C(=O)NC(C(=O)O)c5cc(O)cc(O)c5-c5cc3ccc5O)C(O)c3ccc(c(Cl)c3)O4)OC(CO)C(O)C2O)CC(C)(NCc2ccc(-c3ccc(Cl)cc3)cc2)C1O (mixture of isomers) [Compound 147] | 2 | – |
| CC1OC(OC2C(Oc3c4cc5cc3Oc3ccc(cc3Cl)[C@@H](O)[C@@H](NC(=O)[C@H](O)CCCNC(=N)N)C(=O)N[C@@H](CC(N)=O)C(=O)N[C@H]5C(=O)NC3C(=O)N[C@H](C(=O)N[C@@H](C(=O)O)c5cc(O)cc(O)c5-c5cc3ccc5O)[C@H](O)c3ccc(c(Cl)c3)O4)OC(CO)C(O)C2O)CC(C)(NCc2ccc(-c3ccc(Cl)cc3)cc2)C1O (stereo partly shown) [Compound 165] | 2 | – |
| CC(=O)NCSCC(N)C(=O)NC1C(=O)NC(CC(N)=O)C(=O)NC2C(=O)NC3C(=O)NC(C(=O)NC(C(=O)O)c4cc(O)cc(O)c4-c4cc3ccc4O)C(O)c3ccc(c(Cl)c3)Oc3cc2cc(c3OC2OC(CO)C(O)C(O)C2OC2CC(C)(NCc3ccc(-c4ccc(Cl)cc4)cc3)C(O)C(C)O2)Oc2ccc(cc2Cl)C1O (stereo not shown) [Compound 55] | 2 | – |
| CC1OC(OC2C(Oc3c4cc5cc3Oc3ccc(cc3Cl)C(O)C3NC(=O)C(NC(=O)C5NC(=O)C(CC(N)=O)NC(=O)C(NC(=O)C5CCOC5)C(O)c5ccc(c(Cl)c5)O4)c4ccc(O)c(c4)-c4c(O)cc(O)cc4C(C(=O)O)NC3=O)OC(CO)C(O)C2O)CC(C)(NCc2ccc(-c3ccc(Cl)cc3)cc2)C1O (stereo not shown) [Compound 317] | – | 2 |
| CC1OC(OC2C(Oc3c4cc5cc3Oc3ccc(cc3Cl)C(O)C3NC(=O)C(NC(=O)C5NC(=O)C(CC(N)=O)NC(=O)C(NC(=O)CC(F)(F)F)C(O)c5ccc(c(Cl)c5)O4)c4ccc(O)c(c4)-c4c(O)cc(O)cc4C(C(=O)O)NC3=O)OC(CO)C(O)C2O)CC(C)(NCc2ccc(-c3ccc(Cl)cc3)cc2)C1O (stereo not shown) [Compound 249] | – | 2 |
| CC1OC(OC2C(Oc3c4cc5cc3Oc3ccc(cc3Cl)C(O)C3NC(=O)C(NC(=O)C5NC(=O)C(CC(N)=O)NC(=O)C(NC(=O)C=O)C(O)c5ccc(c(Cl)c5)O4)c4ccc(O)c(c4)-c4c(O)cc(O)cc4C(C(=O)O)NC3=O)OC(CO)C(O)C2O)CC(C)(NCc2ccc(-c3ccc(Cl)cc3)cc2)C1O (stereo not shown) [Compound 159] | 2 | – |
| CC1OC(OC2C(Oc3c4cc5cc3Oc3ccc(cc3Cl)C(O)C3NC(=O)C(NC(=O)C5NC(=O)C(CC(N)=O)NC(=O)C(NC(=O)C(CCCNC(=N)N)NC(=O)CNC(=O)OC(C)(C)C)C(O)c5ccc(c(Cl)c5)O4)c4ccc(O)c(c4)-c4c(O)cc(O)cc4C(C(=O)O)NC3=O)OC(CO)C(O)C2O)CC(C)(NCc2ccc(-c3ccc(Cl)cc3)cc2)C1O (stereo not shown) [Compound 138] | 2 | – |
| CC1OC(OC2C(Oc3c4cc5cc3Oc3ccc(cc3Cl)C(O)C3NC(=O)C(NC(=O)C5NC(=O)C(CC(N)=O)NC(=O)C(NC(=O)c5ccccc5O)C(O)c5ccc(c(Cl)c5)O4)c4ccc(O)c(c4)-c4c(O)cc(O)cc4C(C(=O)O)NC3=O)OC(CO)C(O)C2O)CC(C)(NCc2ccc(-c3ccc(Cl)cc3)cc2)C1O (stereo not shown) [Compound 315] | – | 2 |
| CC(OC(c1ccccc1)(c1ccccc1)c1ccccc1)[C@H](N)C(=O)N[C@H]1C(=O)N[C@@H](CC(N)=O)C(=O)N[C@H]2C(=O)N[C@H]3C(=O)N[C@H](C(=O)N[C@@H](C(=O)O)c4cc(O)cc(O)c4-c4cc3ccc4O)[C@H](O)c3ccc(c(Cl)c3)Oc3cc2cc(c3O[C@@H]2O[C@H](CO)[C@@H](O)[C@H](O)[C@H]2O[C@@H]2C[C@@](C)(NCc3ccc(-c4ccc(Cl)cc4)cc3)[C@@H](O)[C@@H](C)O2)Oc2ccc(cc2Cl)[C@H]1O (stereo partly shown) [Compound 11] | 2 | – |
| CC(=O)NC(CC(N)=O)C(=O)NC1C(=O)NC(CC(N)=O)C(=O)NC2C(=O)NC3C(=O)NC(C(=O)NC(C(=O)O)c4cc(O)cc(O)c4-c4cc3ccc4O)C(O)c3ccc(c(Cl)c3)Oc3cc2cc(c3OC2OC(CO)C(O)C(O)C2OC2CC(C)(NCc3ccc(-c4ccc(Cl)cc4)cc3)C(O)C(C)O2)Oc2ccc(cc2Cl)C1O (stereo not shown) [Compound 113] | 2 | – |
| Cc1ccc(C(NCCCCC(N)C(=O)NC2C(=O)NC(CC(N)=O)C(=O)NC3C(=O)NC4C(=O)NC(C(=O)NC(C(=O)O)c5cc(O)cc(O)c5-c5cc4ccc5O)C(O)c4ccc(c(Cl)c4)Oc4cc3cc(c4OC3OC(CO)C(O)C(O)C3OC3CC(C)(NCc4ccc(-c5ccc(Cl)cc5)cc4)C(O)C(C)O3)Oc3ccc(cc3Cl)C2O)(c2ccccc2)c2ccccc2)cc1 (stereo not shown) [Compound 40] | 2 | – |
| CC(N)C(=O)NC1C(=O)NC(CC(N)=O)C(=O)NC2C(=O)NC3C(=O)NC(C(=O)NC(C(=O)O)c4cc(O)cc(O)c4-c4cc3ccc4O)C(O)c3ccc(c(Cl)c3)Oc3cc2cc(c3OC2OC(CO)C(O)C(O)C2OC2CC(C)(NCc3ccc(-c4ccc(Cl)cc4)cc3)C(O)C(C)O2)Oc2ccc(cc2Cl)C1O (stereo not shown) [Compound 51] | 2 | – |
| CC1OC(OC2C(Oc3c4cc5cc3Oc3ccc(cc3Cl)C(O)C3NC(=O)C(NC(=O)C5NC(=O)C(CC(N)=O)NC(=O)C(NC(=O)c5cccnc5)C(O)c5ccc(c(Cl)c5)O4)c4ccc(O)c(c4)-c4c(O)cc(O)cc4C(C(=O)O)NC3=O)OC(CO)C(O)C2O)CC(C)(NCc2ccc(-c3ccc(Cl)cc3)cc2)C1O (stereo not shown) [Compound 307] | – | 2 |
| CC(=O)NC(C(=O)NC1C(=O)NC(CC(N)=O)C(=O)NC2C(=O)NC3C(=O)NC(C(=O)NC(C(=O)O)c4cc(O)cc(O)c4-c4cc3ccc4O)C(O)c3ccc(c(Cl)c3)Oc3cc2cc(c3OC2OC(CO)C(O)C(O)C2OC2CC(C)(NCc3ccc(-c4ccc(Cl)cc4)cc3)C(O)C(C)O2)Oc2ccc(cc2Cl)C1O)C(C)O (stereo not shown) [Compound 125] | 2 | – |
| CC(C)C(NC(=O)CN)C(=O)NC1C(=O)NC(CC(N)=O)C(=O)NC2C(=O)NC3C(=O)NC(C(=O)NC(C(=O)O)c4cc(O)cc(O)c4-c4cc3ccc4O)C(O)c3ccc(c(Cl)c3)Oc3cc2cc(c3OC2OC(CO)C(O)C(O)C2OC2CC(C)(NCc3ccc(-c4ccc(Cl)cc4)cc3)C(O)C(C)O2)Oc2ccc(cc2Cl)C1O (stereo not shown) [Compound 70] | 2 | – |
| CC1OC(OC2C(Oc3c4cc5cc3Oc3ccc(cc3Cl)[C@@H](O)[C@@H](NC(=O)CNC(N)=O)C(=O)N[C@@H](CC(N)=O)C(=O)N[C@H]5C(=O)NC3C(=O)N[C@H](C(=O)N[C@@H](C(=O)O)c5cc(O)cc(O)c5-c5cc3ccc5O)[C@H](O)c3ccc(c(Cl)c3)O4)OC(CO)C(O)C2O)CC(C)(NCc2ccc(-c3ccc(Cl)cc3)cc2)C1O (stereo partly shown) [Compound 162] | 2 | – |
| CC1OC(OC2C(Oc3c4cc5cc3Oc3ccc(cc3Cl)[C@@H](O)[C@@H](NC(=O)[C@@H]3CCC(=O)N3)C(=O)N[C@@H](CC(N)=O)C(=O)N[C@H]5C(=O)NC3C(=O)N[C@H](C(=O)N[C@@H](C(=O)O)c5cc(O)cc(O)c5-c5cc3ccc5O)[C@H](O)c3ccc(c(Cl)c3)O4)OC(CO)C(O)C2O)CC(C)(NCc2ccc(-c3ccc(Cl)cc3)cc2)C1O (stereo partly shown) [Compound 169] | 2 | – |
| CC1OC(OC2C(Oc3c4cc5cc3Oc3ccc(cc3Cl)C(O)C(NC(=O)C3OC(O)C(O)C(O)C3O)C(=O)NC(CC(N)=O)C(=O)NC5C(=O)NC3C(=O)NC(C(=O)NC(C(=O)O)c5cc(O)cc(O)c5-c5cc3ccc5O)C(O)c3ccc(c(Cl)c3)O4)OC(CO)C(O)C2O)CC(C)(NCc2ccc(-c3ccc(Cl)cc3)cc2)C1O (mixture of isomers) [Compound 148] | 2 | – |
| CC1OC(OC2C(Oc3c4cc5cc3Oc3ccc(cc3Cl)C(O)C(NC(=O)C(O)C3OC(=O)C(O)C3O)C(=O)NC(CC(N)=O)C(=O)NC5C(=O)NC3C(=O)NC(C(=O)NC(C(=O)O)c5cc(O)cc(O)c5-c5cc3ccc5O)C(O)c3ccc(c(Cl)c3)O4)OC(CO)C(O)C2O)CC(C)(NCc2ccc(-c3ccc(Cl)cc3)cc2)C1O (stereo not shown) [Compound 155] | 2 | – |
| CCC(=O)C(=O)NC1C(=O)NC(CC(N)=O)C(=O)NC2C(=O)NC3C(=O)NC(C(=O)NC(C(=O)O)c4cc(O)cc(O)c4-c4cc3ccc4O)C(O)c3ccc(c(Cl)c3)Oc3cc2cc(c3OC2OC(CO)C(O)C(O)C2OC2CC(C)(NCc3ccc(-c4ccc(Cl)cc4)cc3)C(O)C(C)O2)Oc2ccc(cc2Cl)C1O (stereo not shown) [Compound 242] | – | 2 |
| CC1OC(OC2C(Oc3c4cc5cc3Oc3ccc(cc3Cl)C(O)C(NC(=O)C3(O)CC(O)C(O)C(O)C3)C(=O)NC(CC(N)=O)C(=O)NC5C(=O)NC3C(=O)NC(C(=O)NC(C(=O)O)c5cc(O)cc(O)c5-c5cc3ccc5O)C(O)c3ccc(c(Cl)c3)O4)OC(CO)C(O)C2O)CC(C)(NCc2ccc(-c3ccc(Cl)cc3)cc2)C1O (stereo not shown) [Compound 146] | 2 | – |
| COCCOCCOCC(=O)NC1C(=O)NC(CC(N)=O)C(=O)NC2C(=O)NC3C(=O)NC(C(=O)NC(C(=O)O)c4cc(O)cc(O)c4-c4cc3ccc4O)C(O)c3ccc(c(Cl)c3)Oc3cc2cc(c3OC2OC(CO)C(O)C(O)C2OC2CC(C)(NCc3ccc(-c4ccc(Cl)cc4)cc3)C(O)C(C)O2)Oc2ccc(cc2Cl)C1O (stereo not shown) [Compound 101] | 2 | – |
| CC1OC(OC2C(Oc3c4cc5cc3Oc3ccc(cc3Cl)C(O)C(NC(=O)C(O)C(O)C(O)CO)C(=O)NC(CC(N)=O)C(=O)NC5C(=O)NC3C(=O)NC(C(=O)NC(C(=O)O)c5cc(O)cc(O)c5-c5cc3ccc5O)C(O)c3ccc(c(Cl)c3)O4)OC(CO)C(O)C2O)CC(C)(NCc2ccc(-c3ccc(Cl)cc3)cc2)C1O (stereo not shown) [Compound 127] | 2 | – |
| CC1OC(OC2C(Oc3c4cc5cc3Oc3ccc(cc3Cl)C(O)C3NC(=O)C(NC(=O)C5NC(=O)C(CC(N)=O)NC(=O)C(NC(=O)C(N)Cc5c[nH]cn5)C(O)c5ccc(c(Cl)c5)O4)c4ccc(O)c(c4)-c4c(O)cc(O)cc4C(C(=O)O)NC3=O)OC(CO)C(O)C2O)CC(C)(NCc2ccc(-c3ccc(Cl)cc3)cc2)C1O (stereo not shown) [Compound 58] | 2 | – |
| CC1OC(OC2C(Oc3c4cc5cc3Oc3ccc(cc3Cl)C(O)C(NC(=O)C3CCC(O)N3C(=O)C3CCCN3C(=O)CN)C(=O)NC(CC(N)=O)C(=O)NC5C(=O)NC3C(=O)NC(C(=O)NC(C(=O)O)c5cc(O)cc(O)c5-c5cc3ccc5O)C(O)c3ccc(c(Cl)c3)O4)OC(CO)C(O)C2O)CC(C)(NCc2ccc(-c3ccc(Cl)cc3)cc2)C1O (stereo not shown) [Compound 69] | 2 | – |

— patent US6518243B1, “Desleucyl glycopeptide antibiotics and methods of making same” (Trustees of Princeton University, priority 1999, dated 2003)
